Results reported in ChEMBL document CHEMBL1201862, “PubChem BioAssay data set” (2004).
Active and inactive are the calls of the source. Unless noted, no cut-off for these calls is given here.

What was measured:
[1] = Luminescence Cell-Based Dose Retest to Confirm Inhibitors of Cancer Stem Cells. [Related pubchem assays (depositor defined):AID2717, AID2721]; type: functional; settings: Homo sapiens
[2] = viability loss of HMLE_sh_eGFP cells – cell-based, luminescence, counter-screen for HMLE_sh_ECad selective toxicity project, dose response (AID 463074); type: functional, Homo sapiens;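 note: HMLE human mammary epithelial cells expressing control shRNA against eGFP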
HeLa = assay: ATP-based viability loss in HeLa cells – cell-based, CellTiter-Glo luminescence, cherry-pick samples, cytotoxicity control for MITF activator project, dose response (AID 540259); type: functional; settings: Homo sapiens
Beta-arrestin-1 = Beta-arrestin-1 (Homo sapiens, UniProt P49407); assay: beta-arrestin/AP2 interaction blockers, potency – biochemical, cherry pick 1, beta2-adaptin appendage, flow cytometry, dose response (AID 588783); type: functional
[3] = molecular target: Potassium voltage-gated channel subfamily KQT member 2/member 3 (Rattus norvegicus, UniProt O88943+O88944); assay: Mode of action assay-Dose response assay for KCNQ2 activators in the KCNQ2/KCNQ3 co-expressing cells on automated patch clamp. [Related pubchem assays (depositor defined):AID2239, AID2258, AID2287]; type: functional
[4] = molecular target: T1, Potassium voltage-gated channel subfamily KQT member 4 (Homo sapiens, UniProt P56696); assay: KCNQ4 thallium flux concentration-response – KCNQ4-expressing cells, selectivity assay for KCNQ2 activator project, dose response (AID 504416); type: functional, cell-based
[5] = molecular target: Potassium voltage-gated channel subfamily KQT member 2 (Rattus norvegicus, UniProt O88943); assay: Mode of action assay-Dose response assay for compounds that activate KCNQ2 potassium channels on automated patch clamp. [Related pubchem assays (depositor defined):AID2239, AID2258, AID2287, AID493113]; type: functional
[6] = molecular target: T1, Potassium voltage-gated channel subfamily KQT member 4; assay: activation of KCNQ4 potassium current – automated patch clamp, CHO cells, selectivity assay for KCNQ2 activator project, dose response (AID 493043); type: functional, cell-based
[7] = molecular target: Beta-2 adrenergic receptor (Homo sapiens, UniProt P07550); assay: ADRB2 activation measured by internalization – cell-based, FAP fluorogen, flow cytometry, cherry pick 1, dose response (AID 588763); type: functional
H9c2 = assay: cells; type: functional, cell-based; settings: Rattus norvegicus, H9c2, Myocardium;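 note: confirmatory concentration-response retest of ultra-high-throughput screening hits for modulation of myocardial damage; cell death induced by hydrogen peroxide oxidative stress; compound pretreatment for 60 min then peroxide exposure for 2 h; potency is for protecting the cells against peroxide damage rather than for killing them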
Hexokinase HKDC1 = molecular target: T2, Hexokinase HKDC1 (Homo sapiens, UniProt Q2TB90); assay: SAR analysis of small molecule inhibitors of hexokinase domain containing I (HKDC1). [Related pubchem assays (depositor defined):AID493160, AID493190]; type: functional
T2 sequence (Q2TB90 whole entry): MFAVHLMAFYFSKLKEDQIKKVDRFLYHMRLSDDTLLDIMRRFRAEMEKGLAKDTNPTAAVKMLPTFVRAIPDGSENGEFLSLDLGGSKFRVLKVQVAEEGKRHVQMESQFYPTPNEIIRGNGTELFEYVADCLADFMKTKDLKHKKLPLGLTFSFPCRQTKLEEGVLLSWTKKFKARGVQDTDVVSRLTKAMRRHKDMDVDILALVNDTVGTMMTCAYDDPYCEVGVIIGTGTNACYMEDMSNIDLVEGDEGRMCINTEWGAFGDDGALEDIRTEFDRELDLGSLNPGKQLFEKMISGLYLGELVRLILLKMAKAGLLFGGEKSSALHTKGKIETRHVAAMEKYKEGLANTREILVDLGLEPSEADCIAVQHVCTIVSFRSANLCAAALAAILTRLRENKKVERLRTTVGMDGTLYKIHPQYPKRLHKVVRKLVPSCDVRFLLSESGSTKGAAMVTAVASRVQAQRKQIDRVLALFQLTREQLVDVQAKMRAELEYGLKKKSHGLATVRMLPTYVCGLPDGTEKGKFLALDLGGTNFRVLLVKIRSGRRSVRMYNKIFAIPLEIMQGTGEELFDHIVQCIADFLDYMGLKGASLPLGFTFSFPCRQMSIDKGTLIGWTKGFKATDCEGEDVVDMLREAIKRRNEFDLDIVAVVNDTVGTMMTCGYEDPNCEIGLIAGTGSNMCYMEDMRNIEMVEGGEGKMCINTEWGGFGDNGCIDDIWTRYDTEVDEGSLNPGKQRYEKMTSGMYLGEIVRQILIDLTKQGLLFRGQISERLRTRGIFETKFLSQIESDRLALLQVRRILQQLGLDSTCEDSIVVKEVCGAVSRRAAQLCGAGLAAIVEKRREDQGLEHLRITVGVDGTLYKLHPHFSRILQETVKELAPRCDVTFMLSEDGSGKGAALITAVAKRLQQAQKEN

Hexokinase-1 = molecular target: T3, Hexokinase-1 (Homo sapiens, UniProt P19367); assay: SAR analysis of small molecule inhibitors of hexokinase domain containing I (HKDC1) in the hexokinase 1 selectivity assay. [Related pubchem assays (depositor defined):AID493160, AID493190]; type: functional
T3 sequence (P19367 whole entry): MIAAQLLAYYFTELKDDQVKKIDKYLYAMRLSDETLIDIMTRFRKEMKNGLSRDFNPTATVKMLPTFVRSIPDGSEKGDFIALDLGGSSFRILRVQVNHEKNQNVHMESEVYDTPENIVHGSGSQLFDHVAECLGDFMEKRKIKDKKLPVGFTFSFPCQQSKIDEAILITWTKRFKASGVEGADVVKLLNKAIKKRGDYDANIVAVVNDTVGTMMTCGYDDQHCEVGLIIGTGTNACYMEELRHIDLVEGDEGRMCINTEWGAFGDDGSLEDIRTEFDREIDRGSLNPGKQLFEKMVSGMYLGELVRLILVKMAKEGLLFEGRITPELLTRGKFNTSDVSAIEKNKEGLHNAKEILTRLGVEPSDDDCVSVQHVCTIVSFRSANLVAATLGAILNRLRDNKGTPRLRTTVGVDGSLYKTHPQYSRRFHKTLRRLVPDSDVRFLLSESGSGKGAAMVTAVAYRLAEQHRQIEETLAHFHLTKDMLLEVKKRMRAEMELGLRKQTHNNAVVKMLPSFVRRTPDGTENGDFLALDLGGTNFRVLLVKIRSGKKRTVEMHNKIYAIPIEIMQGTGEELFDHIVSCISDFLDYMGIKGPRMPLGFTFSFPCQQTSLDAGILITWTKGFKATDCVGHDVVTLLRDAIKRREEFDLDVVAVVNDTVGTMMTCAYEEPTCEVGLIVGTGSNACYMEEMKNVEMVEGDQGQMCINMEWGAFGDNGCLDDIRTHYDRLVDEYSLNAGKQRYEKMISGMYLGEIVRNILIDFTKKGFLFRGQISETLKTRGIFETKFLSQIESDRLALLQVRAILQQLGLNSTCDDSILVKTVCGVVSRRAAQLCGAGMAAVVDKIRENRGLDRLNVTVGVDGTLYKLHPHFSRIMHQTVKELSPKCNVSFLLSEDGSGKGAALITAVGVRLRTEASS

T1 sequence (P56696 whole entry): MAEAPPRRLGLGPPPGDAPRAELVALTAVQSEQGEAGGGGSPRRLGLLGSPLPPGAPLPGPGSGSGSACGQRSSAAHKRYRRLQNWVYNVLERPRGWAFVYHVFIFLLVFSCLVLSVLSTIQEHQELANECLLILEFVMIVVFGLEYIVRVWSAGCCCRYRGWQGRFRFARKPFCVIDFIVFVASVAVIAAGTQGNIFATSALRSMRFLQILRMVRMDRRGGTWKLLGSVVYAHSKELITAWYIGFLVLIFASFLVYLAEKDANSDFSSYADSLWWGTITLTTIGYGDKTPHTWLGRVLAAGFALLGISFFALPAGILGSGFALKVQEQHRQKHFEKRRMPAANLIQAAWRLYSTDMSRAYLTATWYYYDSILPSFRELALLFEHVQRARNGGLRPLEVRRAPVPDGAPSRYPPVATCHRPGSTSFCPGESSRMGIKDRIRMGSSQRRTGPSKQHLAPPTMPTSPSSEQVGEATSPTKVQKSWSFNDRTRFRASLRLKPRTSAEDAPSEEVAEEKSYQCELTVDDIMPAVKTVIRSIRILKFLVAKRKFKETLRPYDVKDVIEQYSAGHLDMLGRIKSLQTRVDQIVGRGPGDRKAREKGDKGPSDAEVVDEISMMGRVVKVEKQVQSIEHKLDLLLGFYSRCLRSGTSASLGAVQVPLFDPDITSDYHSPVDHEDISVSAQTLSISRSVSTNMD
Beta-arrestin-1, sequence (P49407 whole entry): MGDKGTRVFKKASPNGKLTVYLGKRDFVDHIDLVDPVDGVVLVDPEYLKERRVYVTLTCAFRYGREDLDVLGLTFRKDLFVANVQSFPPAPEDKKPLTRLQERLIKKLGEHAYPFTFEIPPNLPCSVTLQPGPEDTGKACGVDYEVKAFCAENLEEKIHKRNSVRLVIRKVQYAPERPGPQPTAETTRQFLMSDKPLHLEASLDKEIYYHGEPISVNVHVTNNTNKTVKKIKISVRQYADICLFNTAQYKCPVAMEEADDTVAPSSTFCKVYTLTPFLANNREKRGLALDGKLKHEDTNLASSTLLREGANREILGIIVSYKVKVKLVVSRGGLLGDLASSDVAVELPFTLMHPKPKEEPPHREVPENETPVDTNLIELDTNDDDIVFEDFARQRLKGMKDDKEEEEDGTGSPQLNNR
Potassium voltage-gated channel subfamily KQT member 2, sequence (O88943 whole entry): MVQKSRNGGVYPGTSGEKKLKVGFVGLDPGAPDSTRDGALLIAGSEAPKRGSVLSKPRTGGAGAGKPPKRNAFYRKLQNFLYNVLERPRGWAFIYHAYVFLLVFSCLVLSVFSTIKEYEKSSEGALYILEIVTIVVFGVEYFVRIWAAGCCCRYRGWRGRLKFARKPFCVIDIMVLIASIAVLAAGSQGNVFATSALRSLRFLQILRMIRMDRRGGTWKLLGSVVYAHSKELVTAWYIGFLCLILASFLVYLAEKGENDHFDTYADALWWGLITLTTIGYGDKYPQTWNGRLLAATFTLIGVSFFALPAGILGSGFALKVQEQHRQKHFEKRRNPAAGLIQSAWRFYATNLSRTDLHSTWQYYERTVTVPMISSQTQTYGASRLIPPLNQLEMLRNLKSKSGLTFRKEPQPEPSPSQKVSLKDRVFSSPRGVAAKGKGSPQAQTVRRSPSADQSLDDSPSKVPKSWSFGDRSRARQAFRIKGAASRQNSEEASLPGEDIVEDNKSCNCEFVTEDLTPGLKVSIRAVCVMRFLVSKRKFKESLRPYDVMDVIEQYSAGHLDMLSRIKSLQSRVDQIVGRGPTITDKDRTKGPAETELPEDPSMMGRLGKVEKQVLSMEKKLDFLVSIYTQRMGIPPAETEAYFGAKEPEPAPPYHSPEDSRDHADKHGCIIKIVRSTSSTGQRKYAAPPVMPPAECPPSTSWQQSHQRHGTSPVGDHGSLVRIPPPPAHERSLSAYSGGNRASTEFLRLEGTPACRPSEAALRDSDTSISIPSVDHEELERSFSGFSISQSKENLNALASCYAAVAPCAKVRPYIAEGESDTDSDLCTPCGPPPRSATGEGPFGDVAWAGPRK
Potassium voltage-gated channel subfamily KQT member 2/member 3, sequence (O88943 whole entry): as above
Potassium voltage-gated channel subfamily KQT member 2/member 3, sequence (O88944 whole entry): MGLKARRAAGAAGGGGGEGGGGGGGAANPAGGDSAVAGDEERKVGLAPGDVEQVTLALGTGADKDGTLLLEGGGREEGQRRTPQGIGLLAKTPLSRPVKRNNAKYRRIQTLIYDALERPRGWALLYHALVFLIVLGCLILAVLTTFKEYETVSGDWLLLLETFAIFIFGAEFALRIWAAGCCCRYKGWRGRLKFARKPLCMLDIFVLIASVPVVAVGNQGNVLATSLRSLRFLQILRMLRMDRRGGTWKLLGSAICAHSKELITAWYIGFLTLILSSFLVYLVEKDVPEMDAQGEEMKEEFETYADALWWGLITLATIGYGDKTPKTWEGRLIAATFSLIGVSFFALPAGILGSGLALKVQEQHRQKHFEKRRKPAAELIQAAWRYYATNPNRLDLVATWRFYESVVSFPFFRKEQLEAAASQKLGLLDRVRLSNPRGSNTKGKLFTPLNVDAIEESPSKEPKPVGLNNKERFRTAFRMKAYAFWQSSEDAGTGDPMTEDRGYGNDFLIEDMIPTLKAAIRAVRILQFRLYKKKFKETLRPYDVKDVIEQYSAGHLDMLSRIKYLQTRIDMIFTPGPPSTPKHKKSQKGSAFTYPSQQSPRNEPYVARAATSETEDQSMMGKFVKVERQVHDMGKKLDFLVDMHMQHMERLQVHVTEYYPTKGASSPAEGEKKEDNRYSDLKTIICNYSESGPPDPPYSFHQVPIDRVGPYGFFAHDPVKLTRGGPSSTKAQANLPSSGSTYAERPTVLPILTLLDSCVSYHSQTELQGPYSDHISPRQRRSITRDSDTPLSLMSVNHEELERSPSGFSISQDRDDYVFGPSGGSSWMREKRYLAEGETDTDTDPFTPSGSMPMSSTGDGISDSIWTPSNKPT
Beta-2 adrenergic receptor, sequence (P07550 whole entry): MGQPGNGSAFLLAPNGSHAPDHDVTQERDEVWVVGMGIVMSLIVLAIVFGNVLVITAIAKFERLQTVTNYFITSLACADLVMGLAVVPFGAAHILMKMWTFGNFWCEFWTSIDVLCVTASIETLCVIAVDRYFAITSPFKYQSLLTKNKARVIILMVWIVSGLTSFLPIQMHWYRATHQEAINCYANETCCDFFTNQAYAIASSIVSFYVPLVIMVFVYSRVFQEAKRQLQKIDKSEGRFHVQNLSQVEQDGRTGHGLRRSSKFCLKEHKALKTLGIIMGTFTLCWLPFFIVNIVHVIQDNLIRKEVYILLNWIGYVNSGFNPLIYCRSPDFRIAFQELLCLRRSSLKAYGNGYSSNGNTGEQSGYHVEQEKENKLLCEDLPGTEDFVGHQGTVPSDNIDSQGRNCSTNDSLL

**Q.** Which AC50 [1] does the source give for O=C(CSc1nc(-c2ccco2)cc(C(F)(F)F)n1)Nc1ccccc1C(F)(F)F here?
**A.** 5.71 µM (active)

**Q.** And the AC50 [2]?
**A.** 23.1 µM (active)

**Q.** With O=C(c1cccs1)N1CCn2c1nc1ccccc12 as the compound, how does the AC50 (HeLa) read?
**A.** 115 µM (active)

**Q.** With Cc1ccc(C2Nc3cccc4cccc(c34)N2)s1 as the compound, how does the IC50 (Beta-arrestin-1) read?
**A.** 15.3 µM (inactive)

**Q.** For Cc1cc(C)c(NC(=O)CC(C)(C)C)c(Cl)c1, which EC50 [3] is on record?
**A.** 0.625 µM (active)

**Q.** What about the EC50 [4] of the same compound?
**A.** 8.78 µM (active)

**Q.** What about the EC50 [5] of the same compound?
**A.** 0.867 µM (active)

**Q.** And the EC50 [6]?
**A.** 15.3 µM (active)

**Q.** For CC(=O)Nc1ccc(S(=O)(=O)N(Cc2ccco2)Cc2cc3ccccc3nc2O)cc1, which EC50 [7] is on record?
**A.** 0.00464 µM (active)

**Q.** And the IC50 (H9c2)?
**A.** > 79 µM (inactive)

**Q.** Which results are given for O=c1c2ccccc2nc(/C=C/c2cccnc2)n1Cc1cccc(F)c1?
**A.** IC50 (Hexokinase HKDC1): > 80 µM (inactive); IC50 (Hexokinase-1): > 80 µM (inactive)
